Reference: patent publication EP0476120B1, “PROCESS FOR PREPARING EQUIMOLAR SALTS OF ASPARTIC ACID AND MAGNESIUM, MAGNESIUM ASPARTATE SALT OBTAINED BY SAID PROCESS AND ITS APPLICATIONS” (LA[…] SPINDLER, priority 1990, dated 1991)
Several values for one entry are separate records, joined by “and”; a condition that tells them apart may be missing. Equal values may be shown once. Read-outs that look alike come from different tables or passages of the source.

Tests used:
souris [1] = settings: mouse; for nombre de redressements, Total (moyenne): 3 min in cylinder
Excerpt: Les scores d'activité sont fonction de la surface à explorer. Ils sont également fonction de deux motivations contradictoires : la curiosité et la crainte. Il faut enfin savoir que lorsque la surface offerte permet une activité "horizontale" (marche) la curiosité parait l'emporter; par contre lorsque la surface est réduite et conduit à une activité "verticale" (redressements le long des parois d'un cylindre) il semble que la crainte anxieuse soit davantage présente et conduise à une activité soit diminuée, soit cyclique, et apparemment sans focalisation.
(§1) Ces études ont été réalisées chez des souris mâles, de souche NMRI-Han, réparties au hasard en lots de 15 souris (séries traitées) et 20 souris (série contrôle).
Au sortir de l'actimètre, les souris sont placées dans un cylindre en verre (hauteur 30 cm, diamètre 9 cm) L'exploration anxiogène a été mesurée par le nombre de redressements au cours de la première minute passée dans le cylindre, l'activité basale anxiogène étant considérée dans la même enceinte, entre 1 et 3 minutes.
(§2) Les doses ont été calculées selon une progression géométrique de base 700 (correspondant au 1/10 de la DL 50) et de raison 2, soit respectivement 175, 350, 700 et 1400 mg.kg⁻¹.
(§3) Les traitements sont réalisés 60 minutes avant le test.
(§4) Il est identique à celui décrit dans l'exemple précédent.
(§5) Les doses ont été calculées selon une progression géométrique de base 700 (correspondant au 1/10 de la DL 50) et de raison 2, soit respectivement 10,95; 21,9; 43,8; 87,5; 175; 350; 700 mg/kg. […] Les derniers traitements ont été réalisés 60 minutes avant le test.

souris [2] = settings: for Animaux tombés (%): controls 20,0
Method: Le test dit du "rota-rod" permet de juger le tonus musculaire et la coordination motrice de souris placées sur une tige tournant à vitesse constante.
as §1
La DA 50 s'exprime par la dose qui provoque en moins de 3 minutes la chute de 50 p. 100 des souris placées sur une tige en bois tournant à une vitesse de 16 tours/min (diamètre 1,7 cm). Ce test qui permet de juger de la coordination motrice des souris est adapté de la technique décrite par N.W. DUNHAN and T.S. MIYA (J. Am. Pharm. Assoc. 1957, 46 : 208)
as §2, §3, §4, §5

[3] = tested on: singes cynomolggus (Macaca fascicularis); settings: monkey
Excerpt: L'étude a été réalisée chez sept singes cynomolggus (Macaca fascicularis), de sexe mâle et femelle, pesant entre 2 et 5 kg.
Un mois avant le début de l'étude, sous anesthésie générale (kétamine + xylazine) huit électrodes (boules d'argent) ont été implantées dans la table osseuse, au niveau des aires frontale, centrale, pariétale et occipitale droites et gauche. L'électrocorticogramme a été enregistré sur un électroencéphalographe REEGA mini-huit (Alvar Electronic) en dérivations monopolaires par rapport à une référence commune.
Les enregistrements ont été réalisés sur des animaux habitués au siège à contention, en position assise, dans une pièce calme mais non insonorisée, en ambiance lumineuse tamisée.
Les huit dérivations EEG ont été analysées simultanément par un Neuromapper 1620 (Neuroscience) qui extrait du signal les transformées de Fourier ("Fast Fourier Transform" : FFT). En fait, 90 échantillons de 2 secondes, soit 3 minutes de tracé exempt d'artefact, ont été analysés. Les données recueillies correspondent à l'amplitude (»V) de chacune des 5 bandes de fréquence EEG classiques selon les bornes suivantes : delta de 0 à 4 Hz ; thêta de 7 à 8 Hz ; alpha de 8 à 13 Hz, bêta₁ de 13 à 20 Hz ; bêta₂ de 20 à 30 Hz.
Pour chacune de ces bandes ont ensuite été calculées : • Les puissances absolues en »V² • les puissances relatives (%), c'est-à-dire la puissance de chacune des bandes de fréquence rapportée à la puissance totale du spectre (power) • la "SEF 95 % (Spectral Edge Frequency 95 %) qui est la fréquence en deçà de laquelle se situent 95 % de la puissance totale du spectre, • le rapport entre fréquences rapides et fréquences lentes : alpha+ bêta/delta + thêta ( α+β/δ+ϑ [formula] )
La dernière ingestion a précédé de 1 heure la seconde administration de diazépam.
Le diazépam (ampoules injectables - Valium® 10 - Roche) a été administré par voie orale, en solution aqueuse, sous un volume de 10 ml/singe, à des doses comprises entre 0,5 mg.kg⁻¹ et 4 mg.kg⁻¹ (doses différentes du fait d'une sensibilité individuelle propre à chaque sujet).
100 (le seuil de probabilité statistique choisi peut paraître élevé ; il est en rapport avec le faible nombre de sujets : n=7). L'ensemble de l'analyse statistique a été obtenu grâce au programme statistique SPSS/PC⁺ (SPSS Inc., Chicago)

souris [4] = settings: mouse; for Nombre de passages "punis" (moyenne): 60 min before test, controls 5,8
Excerpt: Le test est pratiqué chez des souris NMRI-HAN soumises à une diète hydrique préalable de 18 heures et réparties en séries de 15.
L'appareillage utilisé consiste en une boite en plexiglas dont le sol est constitué de 4 plaques métalliques séparées les unes des autres. Un circuit d'alimentation permet d'établir une différence de potentiel entre deux plaques adjacentes grâce à un contacteur. Le test est pratiqué en plaçant doucement une souris sur une des plaques du fond de l'appareil ; les plaques sont électrifiées chaque fois que la souris passe de l'une à l'autre, de telle sorte qu'elle reçoit alors un choc électrique au niveau des pattes. Les paramètres du choc sont les suivants : durée de l'impulsion électrique égale à 0,5 seconde ; intensité égale à 0,6 milliampères. Ce choc induit chez les animaux une réaction motrice évidente de fuite, la souris traversant souvent 2 à 3 plaques successivement. Les conditions expérimentales adoptées ont été les suivantes : exploration libre pendant 15 secondes, traversée punie pendant la minute suivante, les résultats étant exprimés en nombre de passages "punis" pendant cette minute. Soixante souris ont été réparties de la façon suivante :
Les administrations ont été réalisées par voie intra-gastrique, à partir de solutions aqueuses, sous un volume constant de 20 ml.kg⁻¹, 60 minutes avant le début du test. Les animaux contrôles ont reçu un même volume d'eau distillée.
Les administrations ont été réalisées par voie intra-gastrique, à partir de solutions aqueuses, sous un volume constant de 20 ml.kg⁻¹ par produit 60 minutes avant le début du test. Les animaux contrôles ont reçu un même volume d'eau distillée.
Dans un premier temps a été calculée la DA 50 (dose anxiolytique 50) du Diazépam (Valium® 10 mg - Roche, ampoule 2ml) seul, administré à des doses suivant une progression géométrique de base 0,25 et de raison 2, soit respectivement 0,25, 0,5 l et 2 mg.kg⁻¹.
La DA 50 est déterminée à partir du pourcentage d'animaux tranquillisés. Est considéré comme tranquillisé tout animal dont le nombre de passages punis est égal ou supérieur à 9, c'est-à-dire à une valeur représentant une augmentation d'au moins 50 % par rapport au score moyen d'animaux non traités.
Toutes les administrations ont été réalisées par voie intra-gastrique à partir de solutions aqueuses, sous un volume constant de 20 ml.kg⁻¹ (eau distillée pour le groupe contrôle). […] La veille du test, les souris sont soumises à une diète hydrique de 18 heures. La dernière ingestion est pratiquée une heure avant l'étude, concomitamment avec le diazépam (Valium® 10 mg - Roche, ampoules de 2 ml).

[5] = repeated daily dosing (13 days), 10.95 mg/kg P.O., last dose 60 min before test
[6] = repeated daily dosing (13 days), 21.9 mg/kg P.O., last dose 60 min before test
[7] = repeated daily dosing (13 days), 43.8 mg/kg P.O., last dose 60 min before test
[8] = repeated daily dosing (13 days), 87.5 mg/kg P.O., last dose 60 min before test
[9] = repeated daily dosing (13 days), 175 mg/kg P.O., last dose 60 min before test
[10] = repeated daily dosing (13 days), 350 mg/kg P.O., last dose 60 min before test
[11] = repeated daily dosing (13 days), 700 mg/kg P.O., last dose 60 min before test
[12] = single dose 175 mg.kg⁻¹ P.O., 60 min before test
[13] = single dose 350 mg.kg⁻¹ P.O., 60 min before test
[14] = single dose 700 mg.kg⁻¹ P.O., 60 min before test
[15] = single dose 1400 mg.kg⁻¹ P.O., 60 min before test

α-β-aspartate de magnésium
nombre de redressements, 1ère minute (moyenne) (souris [1]; [5]): 16 | nombre de redressements, 2ème minute (moyenne) (souris [1]; [5]): 11 | nombre de redressements, 3ème minute (moyenne) (souris [1]; [5]): 8 | nombre de redressements, Total (moyenne) (souris [1]; [5]): 35 | nombre de redressements, 1ère minute (moyenne) (souris [1]; [6]): 14 | nombre de redressements, 2ème minute (moyenne) (souris [1]; [6]): 9 | nombre de redressements, 3ème minute (moyenne) (souris [1]; [6]): 6 | nombre de redressements, Total (moyenne) (souris [1]; [6]): 29 | nombre de redressements, 1ère minute (moyenne) (souris [1]; [7]): 13 | nombre de redressements, 2ème minute (moyenne) (souris [1]; [7]): 9 | nombre de redressements, 3ème minute (moyenne) (souris [1]; [7]): 8 | nombre de redressements, Total (moyenne) (souris [1]; [7]): 30 | nombre de redressements, 1ère minute (moyenne) (souris [1]; [8]): 13 | nombre de redressements, 2ème minute (moyenne) (souris [1]; [8]): 9 | nombre de redressements, 3ème minute (moyenne) (souris [1]; [8]): 8 | nombre de redressements, Total (moyenne) (souris [1]; [8]): 30 | nombre de redressements, 1ère minute (moyenne) (souris [1]; [9]): 12 | nombre de redressements, 2ème minute (moyenne) (souris [1]; [9]): 9 | nombre de redressements, 3ème minute (moyenne) (souris [1]; [9]): 8 | nombre de redressements, Total (moyenne) (souris [1]; [9]): 29 | nombre de redressements, 1ère minute (moyenne) (souris [1]; [10]): 13 | nombre de redressements, 2ème minute (moyenne) (souris [1]; [10]): 10 | nombre de redressements, 3ème minute (moyenne) (souris [1]; [10]): 8 | nombre de redressements, Total (moyenne) (souris [1]; [10]): 31 | nombre de redressements, 1ère minute (moyenne) (souris [1]; [11]): 14 | nombre de redressements, 2ème minute (moyenne) (souris [1]; [11]): 10 | nombre de redressements, 3ème minute (moyenne) (souris [1]; [11]): 9 | nombre de redressements, Total (moyenne) (souris [1]; [11]): 33 | nombre de redressements, 1ère minute (moyenne) (souris [1]; [12]): 14 | nombre de redressements, 2ème minute (moyenne) (souris [1]; [12]): 8 | nombre de redressements, 3ème minute (moyenne) (souris [1]; [12]): 7 | nombre de redressements, Total (moyenne) (souris [1]; [12]): 29 | nombre de redressements, 1ère minute (moyenne) (souris [1]; [13]): 15 | nombre de redressements, 2ème minute (moyenne) (souris [1]; [13]): 9 | nombre de redressements, 3ème minute (moyenne) (souris [1]; [13]): 6 | nombre de redressements, Total (moyenne) (souris [1]; [13]): 30 | nombre de redressements, 1ère minute (moyenne) (souris [1]; [14]): 15 | nombre de redressements, 2ème minute (moyenne) (souris [1]; [14]): augmente significativement | nombre de redressements, 3ème minute (moyenne) (souris [1]; [14]): 7 | nombre de redressements, Total (moyenne) (souris [1]; [14]): 32 | nombre de redressements, 2ème minute (moyenne) (souris [1]; single dose 700 mg.kg⁻¹ P.O., 60 min before test, listed as Mag): 10 | nombre de redressements, 1ère minute (moyenne) (souris [1]; [15]): 15 | nombre de redressements, 2ème minute (moyenne) (souris [1]; [15]): augmente significativement | nombre de redressements, 3ème minute (moyenne) (souris [1]; [15]): 8 | nombre de redressements, Total (moyenne) (souris [1]; [15]): 34 | nombre de redressements, 2ème minute (moyenne) (souris [1]; single dose 1400 mg.kg⁻¹ P.O., 60 min before test, listed as Mag): 11 | Animaux tombés (%) (souris [2]; mouse, 10,95 mg.kg⁻¹ P.O x13): 26,6% | Animaux tombés (%) (souris [2]; mouse, 21,9 mg.kg⁻¹ P.O x13): 33,3% | Animaux tombés (%) (souris [2]; mouse, 43,8 mg.kg⁻¹ P.O x13): 46,6% | Animaux tombés (%) (souris [2]; mouse, 67,5 mg.kg⁻¹ P.O x13): 33,3% | Animaux tombés (%) (souris [2]; mouse, 175,0 mg.kg⁻¹ P.O x13): 46,6% | Animaux tombés (%) (souris [2]; mouse, 350,0 mg.kg⁻¹ P.O x13): 33,3% | Animaux tombés (%) (souris [2]; mouse, 700,0 mg.kg⁻¹ P.O x13): 33,3% | souris qui chutent de la tige tournante au cours des 3 minutes (souris [2]; mouse, single dose 175 mg.kg⁻¹ P.O., controls 25 %): 13% | DA 50 (réduction du tonus musculaire, rota-rod) (souris [2]; mouse, single dose P.O., Litchfield-Wilcoxon, confidence limits (5 p. 100) 343 - 1091 mg.kg⁻¹): 612 mg/kg | "SEF 95%" augmentée ([3]; 50 mg.kg⁻¹ orally twice daily for two weeks, before diazepam): 0,5 Hz | puissance relative de la bande β accrue ([3]; 50 mg.kg⁻¹ orally twice daily for two weeks, resting EEG, individual values of 4 of 7 subjects): 4,4% and 3,6% and 6,2% and 13% | ondes delta accrues ([3]; 50 mg.kg⁻¹ orally twice daily for two weeks, individual values among the 3 other monkeys): 5% and 8% | proportion relative de la bande β₂ ([3]; after two weeks of α-β-aspartate de magnésium, before diazepam, reference before any drug 20 %): 23% | Nombre de passages "punis" (moyenne) (souris [4]; single dose 300 mg.kg⁻¹ P.O.): n'accroît pas significativement | Nombre de passages "punis" (moyenne) (souris [4]; single dose 300 mg.kg⁻¹ P.O., listed as Mag): 6,4 | Nombre de passages "punis" (moyenne) (souris [4]; single dose 600 mg.kg⁻¹ P.O.): accru significativement | Nombre de passages "punis" (moyenne) (souris [4]; single dose 600 mg.kg⁻¹ P.O., listed as Mag): 8,3 | Nombre de passages "punis" (moyenne) (souris [4]; single dose 1200 mg.kg⁻¹ P.O.): accru significativement | Nombre de passages "punis" (moyenne) (souris [4]; single dose 1200 mg.kg⁻¹ P.O., listed as Mag): 7,5 | dose optimum (propriétés tranquillisantes mineures) (souris [4]; single dose P.O.): 600 mg/kg
